# Test results from ChEMBL document CHEMBL1158923, “Cytotoxic metabolites from the sponge Ianthella basta collected in Papua New Guinea” (1990).
# Tested on: L1210
# Experiment: Cytotoxicity against mouse L1210 cells
# Format: functional
# Details: read-out: ED50 (the source's name)
row,SMILES,EC50 [µg/mL]
1,O=C1N/C=C/c2ccc(c(Br)c2)Oc2cc(cc(Br)c2O)CCNC(=O)/C(=N/O)Cc2cc(Br)c(c(Br)c2)Oc2cc(cc(Br)c2O)C/C1=N\O [BASTADIN 4],5
2,O=C1NCCc2cc(Br)c(O)c(c2)Oc2ccc(cc2Br)[C@H](O)CNC(=O)/C(=N/O)Cc2cc(Br)c(O)c(c2)Oc2c(Br)cc(cc2Br)C/C1=N\O [BASTADIN 8],5
3,O=C1NCCc2cc(Br)c(O)c(c2)Oc2c(Br)cc(cc2Br)C(O)CNC(=O)/C(=N/O)Cc2cc(Br)c(O)c(c2)Oc2ccc(cc2Br)C/C1=N\O (stereo unspecified) [BASTADIN 9],5
4,CO/N=C1\Cc2cc(Br)c(OC)c(c2)Oc2c(Br)cc(cc2Br)C/C(=N\OC)C(=O)NCCc2cc(Br)c(OC)c(c2)Oc2ccc(cc2Br)/C=C/NC1=O [TETRAMETHYLBASTADIN 4],5
5,CO/N=C1/Cc2cc(Br)c(c(Br)c2)Oc2cc(cc(Br)c2OC)C/C(=N\OC)C(=O)NCC(O)c2ccc(c(Br)c2)Oc2cc(cc(Br)c2OC)CCNC1=O (stereo unspecified) [TETRAMETHYLBASTADIN 8],5
6,CO/N=C1\Cc2ccc(c(Br)c2)Oc2cc(cc(Br)c2OC)C/C(=N\OC)C(=O)NCC(O)c2cc(Br)c(c(Br)c2)Oc2cc(cc(Br)c2OC)CCNC1=O (stereo unspecified) [TETRAMETHYLBASTADIN 9],5
